These results are taken from ChEMBL document CHEMBL1201862, “PubChem BioAssay data set” (2004).

Among the test systems are 786-0; A549; COLO 205; EKVX; HT-29; IGROV-1; K562; MCF7; MDA-MB-435; Malme-3M; NCI-H226; NCI-H23; NCI/ADR-RES; OVCAR-3; SK-MEL-28; SN12C; T47D; UACC-257; UO-31; NCI-H460.
Common to all, as to assay: NCI-60 cell line screen, 48 h

Structures are written as SMILES.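 96-well plates; 48 h exposure; 5 concentrations. Endpoints by linear interpolation between flanking doses. Not reached: highest tested concentration assigned. GI50 marks 50% less growth.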 Active and inactive are the calls of the source. Cut-off read from the data, not from the text of the source: active = GI50 up to about 1.1 µM and inactive = higher.

Regarding `Cn1c(=O)[nH]c2[nH]c3ccccc3c2c1=O`, the GI50 in the test on 786-0, with A549, in the test on COLO 205, in the test with EKVX, with HT-29 and in the test with IGROV-1 was > 100 µM (inactive) each time. Also, the GI50 in the test with K562, in the test on MCF7, with MDA-MB-435, in the test with Malme-3M, in the test with NCI-H226 and with NCI-H23 was > 100 µM (inactive) in each case. The GI50 with NCI/ADR-RES, in the test on OVCAR-3, in the test on SK-MEL-28, with SN12C, with T47D and in the test with UACC-257 was > 100 µM (inactive) each time. Besides, the GI50 with UO-31 was > 100 µM (inactive).

Take `CC(Cc1ccccc1)N(C)Cc1nc(C2CCC([N+](=O)[O-])O2)no1` (centres undefined): the GI50 was 11.9 µM (inactive) with 786-0; 12.1 µM (inactive) in the test with A549; 3.72 µM (inactive) in the test with COLO 205; 28.4 µM (inactive) in the test on EKVX; 2.77 µM (inactive) in the test with HT-29; 8.55 µM (inactive) in the test on IGROV-1. In addition, the GI50 with MCF7 is 4.06 µM (inactive); in the test on MDA-MB-435 it was 6.82 µM (inactive); in the test on Malme-3M, 11.9 µM (inactive); in the test on NCI-H226, 16.9 µM (inactive); in the test on NCI-H23, 5.18 µM (inactive); in the test with NCI/ADR-RES, 11.9 µM (inactive). The GI50 in the test with SK-MEL-28 was 11.9 µM (inactive); with SN12C, 2.51 µM (inactive); in the test on T47D it was 19.1 µM (inactive); in the test on UACC-257 it was 7.31 µM (inactive); in the test on UO-31, 7.29 µM (inactive).

`N=C(N)c1ccc(/C=C/c2ccc(C(=N)N)cc2)cc1`: the GI50 in the test on 786-0 is 62.1 µM (inactive); in the test on A549, 39.7 µM (inactive); in the test with EKVX, 46.3 µM (inactive); in the test on HT-29 it was 93.1 µM (inactive); in the test with IGROV-1, 70.8 µM (inactive); in the test on K562 it was 49.8 µM (inactive). For the same compound, the GI50 in the test on MCF7 was 96.6 µM (inactive); in the test with MDA-MB-435, > 100 µM (inactive); in the test on Malme-3M, 53 µM (inactive); in the test on NCI-H226, > 100 µM (inactive); in the test on NCI-H23, 78.5 µM (inactive); in the test with NCI-H460 it was 34.5 µM (inactive). For the same compound, the GI50 is 77.3 µM (inactive) with NCI/ADR-RES; > 100 µM (inactive) in the test with OVCAR-3; 45.8 µM (inactive) in the test with SK-MEL-28; 22.7 µM (inactive) in the test on SN12C; > 100 µM (inactive) in the test on T47D; 65.9 µM (inactive) with UACC-257. Moreover, in the test on UO-31, the GI50 was > 100 µM (inactive).

As to `CCOc1ccc2ccccc2c1NC1=NCCO1`, the GI50 is > 100 µM (inactive) with 786-0; 61 µM (inactive) in the test on A549; 36.6 µM (inactive) in the test with COLO 205; 60.8 µM (inactive) with EKVX; 30.3 µM (inactive) in the test on HT-29; 33.9 µM (inactive) in the test on IGROV-1. Moreover, the GI50 in the test with K562 is 19.8 µM (inactive); with MCF7, 37.8 µM (inactive); with MDA-MB-435 it was 25.8 µM (inactive); in the test with Malme-3M, 39.5 µM (inactive); in the test on NCI-H226, 25.7 µM (inactive); in the test on NCI-H23, 28.8 µM (inactive). Further, the GI50 in the test on NCI-H460 was 12.7 µM (inactive); with NCI/ADR-RES it was 70.3 µM (inactive); in the test on SK-MEL-28 it was > 100 µM (inactive); in the test with SN12C it was > 100 µM (inactive); in the test with T47D it was 29.7 µM (inactive); in the test on UACC-257, 34.6 µM (inactive). Moreover, the GI50 in the test with UO-31 is 21 µM (inactive).

As to `COC(=O)[C@H](Cc1c[nH]c2ccccc12)NC(=O)OCC1OC(n2cc(C)c(=O)[nH]c2=O)CC1N=[N+]=[N-]` (some centres undefined), the GI50 in the test with 786-0, in the test with A549, with COLO 205, in the test on EKVX, in the test with HT-29 and with IGROV-1 was > 100 µM (inactive) each time. In addition, the GI50 with K562 is > 100 µM (inactive); with MCF7, > 100 µM (inactive); with MDA-MB-435, > 100 µM (inactive); with Malme-3M, > 100 µM (inactive); in the test with NCI-H226, > 100 µM (inactive); in the test on NCI-H23, 76 µM (inactive). Further, the GI50 in the test on NCI-H460 was 49.4 µM (inactive); with NCI/ADR-RES it was > 100 µM (inactive); in the test on OVCAR-3, > 100 µM (inactive); with SN12C, > 100 µM (inactive); with T47D, > 100 µM (inactive); in the test with UACC-257, 62.5 µM (inactive). For the same compound, in the test with UO-31, the GI50 was > 100 µM (inactive).

With `Cc1ccc(S(=O)(=O)N(CC(O)COc2ccccc2)c2c(F)c(F)c(F)c(F)c2F)cc1` (centres undefined), the GI50 was 19.5 µM (inactive) in the test with 786-0; 13.4 µM (inactive) in the test with A549; 16.3 µM (inactive) with COLO 205; 17.9 µM (inactive) in the test with EKVX; 16.2 µM (inactive) in the test with HT-29; 10.5 µM (inactive) in the test on MCF7. Also, the GI50 in the test with MDA-MB-435 is 16.4 µM (inactive); in the test with Malme-3M, 22.8 µM (inactive); in the test with NCI-H226 it was 17.9 µM (inactive); in the test with NCI-H23, 14.4 µM (inactive); with NCI-H460, 14.4 µM (inactive); in the test on NCI/ADR-RES, 17 µM (inactive). Also, the GI50 in the test with OVCAR-3 was 17.3 µM (inactive); in the test on SK-MEL-28, 16.9 µM (inactive); in the test with SN12C, 16.6 µM (inactive); in the test on T47D, 18 µM (inactive); in the test with UO-31, 12.6 µM (inactive).

With `Cc1ccc(Nc2nc(N)nc3c2ncn3C2OC(CO)C(O)C2O)cc1` (centres undefined), the GI50 in the test with 786-0, with A549, in the test with COLO 205, in the test with EKVX, with HT-29 and in the test on IGROV-1 was > 100 µM (inactive) throughout. In addition, the GI50 in the test with K562, in the test with MCF7, with MDA-MB-435, with Malme-3M, in the test with NCI-H226 and in the test with NCI-H23 was > 100 µM (inactive) throughout. Further, the GI50 in the test with NCI/ADR-RES, in the test with OVCAR-3, with SK-MEL-28, in the test with SN12C, in the test with T47D and in the test on UACC-257 was > 100 µM (inactive) each time. In the test on UO-31, the GI50 is > 100 µM (inactive).

In the case of `C/C(=N\NC(=S)N1CCN(c2ccccn2)CC1)c1ncccn1`, the GI50 is 0.0601 µM (active) with 786-0; 0.166 µM (active) in the test on A549; 0.0569 µM (active) with COLO 205; 0.291 µM (active) in the test on EKVX; 0.0161 µM (active) in the test with HT-29; 0.00275 µM (active) in the test with IGROV-1. In addition, the GI50 with K562 was 0.00711 µM (active); in the test on MCF7 it was 0.0108 µM (active); with MDA-MB-435, 2.83 µM (inactive); in the test with Malme-3M, 0.267 µM (active); with NCI-H226 it was 0.216 µM (active); in the test with NCI-H23 it was < 0.0288 µM (active). Also, the GI50 in the test with NCI-H460 was 0.0726 µM (active); in the test on NCI/ADR-RES, 0.0179 µM (active); in the test with SK-MEL-28 it was 0.417 µM (active); in the test with SN12C, 0.566 µM (active); in the test on T47D, 0.0953 µM (active); in the test with UACC-257 it was 0.0165 µM (active). The GI50 with UO-31 was 0.993 µM (active).

As for `COC(=O)c1cc(C)n2c1CS[C@@H]2c1ccccc1`, the GI50 in the test on 786-0 is 50.6 µM (inactive); in the test with A549 it was 34.7 µM (inactive); in the test on COLO 205 it was 26.9 µM (inactive); with EKVX, 32.2 µM (inactive); in the test with HT-29 it was 31.2 µM (inactive); in the test with IGROV-1, 44.4 µM (inactive). The GI50 in the test on K562 was 14.1 µM (inactive); in the test on MCF7, 34 µM (inactive); with MDA-MB-435, 19.1 µM (inactive); with Malme-3M, 27.6 µM (inactive); with NCI-H226 it was 28.8 µM (inactive); in the test with NCI-H23, 34.5 µM (inactive). Also, the GI50 with NCI/ADR-RES was 25.1 µM (inactive); with OVCAR-3, 32.4 µM (inactive); in the test on SK-MEL-28, > 100 µM (inactive); in the test on SN12C, 37.2 µM (inactive); in the test with T47D, 21.5 µM (inactive); with UACC-257, 47.9 µM (inactive). The GI50 with UO-31 is 28.4 µM (inactive).

As for `O=c1c2ccc(Cl)cc2oc2c(CNc3ccc(S(=O)(=O)Nc4nccs4)cc3)cccc12`, the GI50 in the test with 786-0, in the test on A549, in the test on COLO 205, in the test on EKVX, with HT-29 and with IGROV-1 was > 100 µM (inactive) each time. Also, the GI50 with K562, with MCF7, in the test on MDA-MB-435, in the test on Malme-3M, in the test on NCI-H226 and in the test with NCI-H23 was > 100 µM (inactive) throughout. Moreover, the GI50 in the test on NCI/ADR-RES, with OVCAR-3, in the test on SK-MEL-28, with SN12C, with T47D and in the test with UACC-257 was > 100 µM (inactive) in each case. For the same compound, the GI50 in the test with UO-31 was > 100 µM (inactive).

In the case of `O=C(c1ccccc1)N1CCC(Nc2cccnc2)O1` (centres undefined), the GI50 with 786-0, in the test on A549, in the test on EKVX, with HT-29, in the test with IGROV-1 and in the test with K562 was > 100 µM (inactive) throughout. Also, the GI50 in the test on MCF7 was > 100 µM (inactive); with MDA-MB-435, > 100 µM (inactive); with Malme-3M, 60.3 µM (inactive); with NCI-H226, > 100 µM (inactive); in the test on NCI-H23, > 100 µM (inactive); with NCI-H460, > 100 µM (inactive). The GI50 in the test with NCI/ADR-RES is > 100 µM (inactive); in the test on OVCAR-3 it was > 100 µM (inactive); in the test with SK-MEL-28, > 100 µM (inactive); in the test on SN12C it was > 100 µM (inactive); in the test on T47D, 92.9 µM (inactive); in the test with UO-31, > 100 µM (inactive).
